The results in this text go back to patent US11840560B2, “Prodrugs and uses thereof” (Novo Nordisk A/S, priority 2022, dated 2023).

Series [1] is described as follows: physchem. Particulars: buffer, pH 7.4. In kind it is physicochemical. On the procedure: The assay was performed to investigate the conversion half-life of prodrug to drug of the prodrugs of the invention. The conversion half-life was investigated in vitro at pH 7.4 upon incubation at 37° C.
Test compounds were dissolved to a concentration of 100 μM in phosphate-buffered saline (140 mM NaCl, 2.07 mM KCl, 8.05 mM Na2HPO4, 1.96 mM KH2PO4, pH 7.4). Solution pH was measured after dissolution and adjusted to pH 7.4 with aqueous NaOH if necessary. The solution was filtered through a 0.22 μm syringe filter, then incubated in a water bath at 37° C. Aliquots were withdrawn at defined timepoints, e.g. every 24-72 hours, for LCMS analysis.
LCMS analysis was performed using the procedure defined in LCMS_A above. The AUC of the prodrug, active drug, and DKP were determined using UV detection at 214 nm, and the ratio of prodrug AUC over total AUC of prodrug plus active drug plus DKP was calculated. The negative natural logarithm of this ratio was plotted over time, and a linear regression of this relationship was then performed.
The prodrug to drug conversion half-life of the compounds of the invention was measured as described in General Methods for Measuring Conversion Half-life.

Series [2] in a line: in vivo. More on the design: species or system Göttingen minipigs. Particulars: female, Göttingen, minipig, iv. The procedure: The purpose of this method is to determine the half-life in vivo of the derivatives of the present invention after i.v. administration to minipigs, i.e. the prolongation of their time in the body and thereby their time of action. This is done in a pharmacokinetic (PK) study, where the terminal half-life of the derivative in question is determined. By terminal half-life is generally meant the period of time it takes to halve a certain plasma concentration, measured after the initial distribution phase.
Female Göttingen minipigs were obtained from Ellegaard Göttingen Minipigs (Dalmose, Denmark) approximately 7-14 months of age and weighing from approximately 16-35 kg were used in the studies. The minipigs were housed individually and fed restrictedly once daily with SDS minipig diet (Special Diets Services, Essex, UK).
After at 3 weeks of acclimatisation two permanent central venous catheters were implanted in vena cava caudalis in each animal. The animals were allowed 1 week recovery after the surgery, and were then used for repeated pharmacokinetic studies with a suitable wash-out period between successive derivative dosing.
The animals were fasted for approximately 18 hours before dosing and from 0 to 4 hours after dosing but had ad libitum access to water during the whole period.
The sodium salts of compounds of Examples 1 were prepared using method SX_A under General Methods for preparation of the compounds of the invention. The resulting sodium salts were dissolved to a concentration of 50-300 nmol/mL in a buffer containing 0.007% polysorbate 20, 50 mM sodium phosphate, 70 mM sodium chloride, pH 7.4. Intravenous injections (the volume corresponding to usually 1-20 nmol/kg, for example 0.02-0.05 mL/kg) of the compounds were given through one catheter, and blood was sampled at predefined time points for up to 21 days post dosing (preferably through the other catheter). Blood samples (for example 0.8 mL) were collected in 8 mM EDTA buffer and then centrifuged at 4° C. and 1942 g for 10 minutes.
Plasma was pipetted into Micronic tubes on dry ice and kept at −20° C. until analysed for plasma concentration of the compounds using ELISA, or a similar antibody-based assay, or LCMS. Individual plasma concentration-time profiles were analysed by a non-compartmental model in Phoenix WinNonLin ver. 6.4. (Pharsight Inc., Mountain View, CA, USA), and the resulting terminal half-lives (harmonic mean) determined.
The terminal half-lives and/or the observed terminal half-lives, measured as described herein in General Methods for Measuring Terminal Half-Life in Minipigs are shown in Table 7. […] This provides evidence that conversion of prodrug to parent compound is occurring in vivo. The terminal half-life of the prodrug may be faster or slower than the corresponding parent compound due to the contribution of conversion on the terminal half-life of the prodrug.

The nature of series [3]: in vivo. More on the design: species or system beagle dogs. The note with it: dog, po, 300 mg; for Tmax / half-life: male, beagle. On the procedure:
The purpose of this method is to determine the terminal half-life and plasma exposure in vivo of the compounds of the present invention after p.o. administration to beagle dogs, i.e. the terminal half-life and concentration of test substance that reaches circulation with time. This is done in a pharmacokinetic (PK) study, where these parameters of the compound in question are determined. By terminal half-life is generally meant the period of time it takes to halve a certain plasma concentration, measured after the initial distribution phase.
Tablet compositions comprising the test compounds obtained from Example 1 and SNAC (sodium N-(8-(2-hydroxybenzoyl)amino)caprylate) were prepared according to methods known to the person skilled in the art by mixing test substance with roller compacted SNAC and magnesium stearate as e.g. described in WO 2019/149880. Each tablet was comprised of 7.7 mg magnesium stearate, 2-4 mg of each compound tested, and 300 mg SNAC.
Male beagle dogs, 1-7 years of age and weighing 9-17 kg during the study period, were included in the study. The dogs were dosed in a fasting state. The dogs were group housed in pens (12 hours light: 12 hours dark), and fed individually and restrictedly once daily with Royal Canin Medium Adult dog food (Royal Canin Products, China Branch, or Brogaarden A/S, Denmark). The dogs were used for repeated PK studies with a suitable wash-out period between successive dosing. An appropriate acclimatisation period was given prior to initiation of the first PK study. All handling, dosing, and blood sampling of the animals were performed by trained and skilled staff. Before the studies, the dogs were fasted overnight and from 0 to 4 hours after dosing. The dogs were restricted to water 1 hour before dosing until 4 hours after dosing, but otherwise had adlibitum access to water during the whole period.
The compositions were administered by a single oral dosing to the dogs in groups of 6-8 dogs. The tablets were administered in the following manner: 10 min prior to tablet administration, the dogs may be dosed subcutaneously with approximately 3 nmol/kg of SEQ ID NO.: 7 ([…]), then tablets were placed in the back of the mouth of the dog to prevent chewing. The mouth was then closed, and 10 mL of tap water was given by syringe or gavage to facilitate swallowing of the tablet.
One blood sample was drawn before dosing, and additional samples were drawn at predefined time points after dosing, such as for up to 600 hours, to adequately cover the full plasma concentration-time absorption profile of the test substance. For each blood sample time point, approximately 0.8 mL of whole blood was collected in a 1.5 mL EDTA-coated tube, which was gently turned to mix the sample with EDTA. Blood samples were collected in EDTA buffer (8 mM) and then centrifuged at 4° C. and 2000 g for 10 minutes. Plasma was pipetted into Micronic tubes on dry ice, and kept at −20° C. or lower until analysis. Blood samples were taken as appropriate, for example from a venflon in the cephalic vein in the front leg for the first 2 hours and then with syringe from the jugular vein for the rest of the time points. The first few drops were allowed to drain from the venflon to avoid heparin saline from the venflon in the sample. All blood samples were collected into test tubes containing EDTA for stabilisation and kept on ice until centrifugation. Plasma was separated from whole blood by centrifugation and the plasma was stored at −20° C. or lower until analysis.
The plasma was analysed for test substance using LC-MS (Liquid Chromatography-Mass Spectrometry) as known to the person skilled in the art. […]

Marks after values point to notes of the source that are not given here. *1 amine or outer side, *2 acyl side, *3 side chain or, on linkers, in order; H or OH if unused. Where a SMILES comes first, the peptide text is derived from it. Side-chain parts run from the residue outwards. [ ]: non-standard residue; d: D form. The star is where a group is joined. C18 diacid = O=C(O)CCCCCCCCCCCCCCCCC(=O)*; C16 diacid = O=C(O)CCCCCCCCCCCCCCC(=O)*; γGlu = O=C(O)[C@H](CCC(=O)[*:2])N[*:1]; εLys = N[C@@H](CCCCN[*:1])C(=O)[*:2]; AEEA = NCCOCCOCC(=O)O; Aib = CC(C)(N)C(=O)O; Sar = CNCC(=O)O

As for “H-[dK]([AEEA-AEEA-γGlu-C16 diacid])[Sar]Y[Aib]EGTFTSDYSILLEEQAAREFIEWLLAGGPSK([AEEA-AEEA-γGlu-C16 diacid])GAPPPS-OH [Compound 10]”, in series [1], the half-life at 100 μM was 195 h. In series [2], this molecule had a half-life of 118 h.
In series [2], `CC[C@H](C)[C@H](NC(=O)[C@H](Cc1ccccc1)NC(=O)[C@H](CCC(=O)O)NC(=O)[C@H](CCCNC(=N)N)NC(=O)[C@H](C)NC(=O)[C@H](C)NC(=O)[C@H](CCC(N)=O)NC(=O)[C@H](CCC(=O)O)NC(=O)[C@H](CCC(=O)O)NC(=O)[C@H](CC(C)C)NC(=O)[C@H](CC(C)C)NC(=O)[C@@H](NC(=O)[C@H](CO)NC(=O)[C@H](Cc1ccc(O)cc1)NC(=O)[C@H](CC(=O)O)NC(=O)[C@H](CO)NC(=O)[C@@H](NC(=O)[C@H](Cc1ccccc1)NC(=O)[C@@H](NC(=O)CNC(=O)[C@H](CCC(=O)O)NC(=O)C(C)(C)NC(=O)[C@@H](N)Cc1ccc(O)cc1)[C@@H](C)O)[C@@H](C)O)[C@@H](C)CC)C(=O)N[C@@H](CCC(=O)O)C(=O)N[C@@H](Cc1c[nH]c2ccccc12)C(=O)N[C@@H](CC(C)C)C(=O)N[C@@H](CC(C)C)C(=O)N[C@@H](C)C(=O)NCC(=O)NCC(=O)N1CCC[C@H]1C(=O)N[C@@H](CO)C(=O)N[C@@H](CCCCNC(=O)COCCOCCNC(=O)COCCOCCNC(=O)CC[C@H](NC(=O)CCCCCCCCCCCCCCC(=O)O)C(=O)O)C(=O)NCC(=O)N[C@@H](C)C(=O)N1CCC[C@H]1C(=O)N1CCC[C@H]1C(=O)N1CCC[C@H]1C(=O)N[C@@H](CO)C(=O)O` [Parent compound 1] (H-Y[Aib]EGTFTSDYSILLEEQAAREFIEWLLAGGPSK([AEEA-AEEA-γGlu-C16 diacid])GAPPPS-OH) gave a half-life of 121 h. In series [3], the AUC/Dose worked out at 60.7 kg·h/L, the Cmax/Dose was determined as 0.67 kg/L, the Tmax came out at 1.5 h and the half-life was 104 h.
With “H-K([γGlu-C16 diacid])[Sar]Y[Aib]EGTFTSDYSILLEEQAAREFIEWLLAGGPSK([AEEA-AEEA-γGlu-C16 diacid])GAPPPS-OH [Compound 3]”, in series [1], the half-life at 100 μM was 111 h. This molecule showed a half-life in series [2] of 119 h. In series [3], the AUC/Dose is 38.5 kg·h/L, the Cmax/Dose is 0.32 kg/L, the Tmax was determined as 7 h and the half-life is 139 h.
In series [1], “H-[dK]([γGlu-C16 diacid])[Sar]Y[Aib]EGTFTSDYSILLEEQAAREFIEWLLAGGPSK([AEEA-AEEA-γGlu-C16 diacid])GAPPPS-OH [Compound 1]” showed a half-life at 100 μM of 244 h. The half-life in series [2] was 118 h. In series [3], the AUC/Dose is 41.2 kg·h/L, the Cmax/Dose was determined as 0.66 kg/L, the Tmax turned out to be 4 h and the half-life is 146 h.
In the case of `CC[C@H](C)[C@H](NC(=O)[C@H](Cc1ccccc1)NC(=O)[C@H](CCC(=O)O)NC(=O)[C@H](CCCNC(=N)N)NC(=O)[C@H](C)NC(=O)[C@H](C)NC(=O)[C@H](CCC(N)=O)NC(=O)[C@H](CCCCNC(=O)[C@@H](N)CCCCNC(=O)[C@@H](N)CCCCNC(=O)CC[C@H](NC(=O)CCCCCCCCCCCCCCCCC(=O)O)C(=O)O)NC(=O)[C@H](CCC(=O)O)NC(=O)[C@H](CC(C)C)NC(=O)[C@H](CC(C)C)NC(=O)[C@@H](NC(=O)[C@H](CO)NC(=O)[C@H](Cc1ccc(O)cc1)NC(=O)[C@H](CC(=O)O)NC(=O)[C@H](CO)NC(=O)[C@@H](NC(=O)[C@H](Cc1ccccc1)NC(=O)[C@@H](NC(=O)CNC(=O)[C@H](CCC(=O)O)NC(=O)C(C)(C)NC(=O)[C@@H](N)Cc1ccc(O)cc1)[C@@H](C)O)[C@@H](C)O)[C@@H](C)CC)C(=O)N[C@@H](CCC(=O)O)C(=O)N[C@@H](Cc1c[nH]c2ccccc12)C(=O)N[C@@H](CC(C)C)C(=O)N[C@@H](CC(C)C)C(=O)N[C@@H](C)C(=O)NCC(=O)NCC(=O)N1CCC[C@H]1C(=O)N[C@@H](CO)C(=O)N[C@@H](CO)C(=O)NCC(=O)N[C@@H](C)C(=O)N1CCC[C@H]1C(=O)N1CCC[C@H]1C(=O)N1CCC[C@H]1C(=O)N[C@@H](CO)C(=O)O` [Parent compound 4] (H-Y[Aib]EGTFTSDYSILLEK([εLys-εLys-γGlu-C18 diacid])QAAREFIEWLLAGGPSSGAPPPS-OH), in series [2], the half-life is 106 h. Besides, in series [3], the AUC/Dose was 17.9* kg*h/L and the Cmax/Dose is given as 0.35* kg/L.
Regarding “H-K([Gly-γGlu-C16 diacid])[Sar]Y[Aib]EGTFTSDYSILLEEQAAREFIEWLLAGGPSK([AEEA-AEEA-γGlu-C16 diacid])GAPPPS-OH [Compound 9]”, the half-life at 100 μM in series [1] is 132 h. Also, the half-life in series [2] was 102 h.
In series [2], “H-K([γGlu-C16 diacid])VY[Aib]EGTFTSDYSILLEEQAAREFIEWLLAGGPSK([AEEA-AEEA-γGlu-C16 diacid])GAPPPS-OH [Non-converting compound 1]” gave a half-life of 170 h. In series [3], the AUC/Dose was 20.1 kg·h/L, the Cmax/Dose came to 0.21 kg/L, the Tmax came out at 1.5 h and the half-life is 137 h.

Broadly, the half-life is the time needed for the level to fall by half in the phase considered. Read a low half-life as fast loss. Usually Tmax stands for the time at which the peak concentration occurs.
